Data taken from EP0168350B1, “Certain ring-fused pyrazolo [3,4-d]-pyridin-3-one derivatives” (CIBA-GEIGY AG, priority 1984, dated 1986).
pIC50: −log10 of the molar value. Where a name gives a salt, the structure may show the parent alone.

Assays:
male Wistar rats = assay: Cook-Davidson conflict procedure for antianxiety effects; assay type: in vivo, rat; settings: dose of about 10 mg/kg p.o.
Description: Anxiolytic effects are observed, for example, according to the Cook-Davidson conflict procedure, using male Wistar rats which are maintained at 80 % of normal body weight by dietary-, but not water-restriction. They are trained to press a lever within a conditioning chamber, also containing a liquid dipper, a house light, a speaker and a grid-floor. Both lever and grid are connected to an electrical shock source and the chamber is situated in a sound-attenuated room in which a white noise-source is activated during testing, in order to mask any extraneous auditory cues. Each session of 47 minutes duration consists of two alternating schedules. The first is a Variable Interval (VI) schedule of 30 seconds, lasting for 5 minutes, during which a sweetened, condensed milk reinforcement is delivered following the first lever-press after an average of 30 seconds have elapsed, and a drug-induced decrement of this performance is taken as an indication of a neurological deficit. Immediately following the VI-schedule both a 1000 Hz tone and a light-cue are activated, indicating the commencement of the second Fixed Ration (FR) schedule, lasting for 2 minutes, wherein the milk reinforcement is delivered concomitant with an electric foot shock immediately following the tenth response, thereby establishing a conflict situation. The intensity of said shock ranges between 2.0 and 3.6 mA, varying with each animal, in order to adjust them to about 25-100 responses during this schedule over the entire session. A drug-induced enhancement of performance during the FR-schedule is taken as indication of antianxiety effects. This increased performance is measured by the increased number of electric shocks taken during six FR sessions lasting 2 minutes each.

benzodiazepine receptor = assay: in vitro benzodiazepine receptor binding assay (displacement of tritiated flunitrazepam); settings: concentration inhibiting specific binding of 0.5 nM tritiated flunitrazepam by 50 %; synaptosomal membranes from rat fore-brain, pH 7.5
Experimental: The benzodiazepine receptor binding properties indicate of the nervous system regulatory activity of said new compounds are determined in the receptor binding assay in vitro, e.g. similarly to that in Nature 266, 732 ( 977) or Proc. Nat. Acad. Sci. USA 74, 3805 (1977). When tritiated flunitrazepam is used, the interaction of other drugs with said receptor can be readily assessed thus; Synaptosnal membranes from rat fore-brain are incubated at 0-5 for 30 minutes with 0.5 nM tritiated flunitrazepam and various concentrations of the test substance in a buffer medium maintained at pH 7.5. Solutions of the various concentrations of test substance are prepared by dilution of a […] stock solution in dimethylacetamide-ethanol (1:10) with 50 mM pH 7.5 Tris-HCI buffer. The membranes, containing the receptors with various amounts of tritiated flunitrazepam, are filtered onto glass fiber filters, which are then analyzed in a liquid scintillation counter. The concentration of the compounds of this invention, required to inhibit the specific binding of 0.5 nM of tritiated flunitrazepam by 50 %, the ICso, is determined graphically.

SMILES	active in the Cook-Davidson test for antianxiety effects (male Wistar rats)	pIC50 (benzodiazepine receptor)
O=c1c2c[nH]c3c(c-2nn1-c1ccc(Cl)cc1)CCCCC3 [Example 9a, 2-p-chlorophenyl-2,3,5,6,7,8,9,10-ocathydrocyclohepta[b]pyrazolo[3,4-d]pyridin-3-one hydrochloride]	active	~9.10
O=c1c2c[nH]c3c(c-2nn1-c1ccc(Cl)cc1)CCC3 [Example 7a, 2-p-chlorophenyl-2,3,5,6,7,8-hexahydrocyclopenta[b]pyrazolo[3,4-d]pyridin-3-one]	–	~9.30
O=c1c2c[nH]c3c(c-2nn1-c1ccccc1)CCC3 [Example 7b, 2-phenyl-2,3,5,6,7,8-hexahydrocyclopenta[b]pyrazolo[3,4-d]pyridin-3-one]	–	~8.82
Cl.O=c1c2c[nH]c3c(c-2nn1-c1ccc(Cl)cc1)CCCC3 [Example 8a, 2-p-chlorophenyl-2,3,6,7,8,9-hexahydropyrazolo[4,3-c]quinolin-3(5H)-one hydrochloride]	active	~8.46
COc1ccc(-n2nc3c4c([nH]cc-3c2=O)CCCC4)cc1 [Example 12c, 2-(4-methoxyphenyl)-2,3,6,7,8,9-hexahydropyrazolo[4,3-c]quinolin-3(5H)-one]	–	~9.22
O=c1c2c[nH]c3c(c-2nn1-c1ccc(Cl)cc1)CSCC3 [Example 3a, 2-p-chlorophenyl-2,3,5,6,7,9-hexahydrothiopyrano[4,3-b]pyrazolo[3,4-d]pyridine-3-one]	–	~9.46
O=C(Nc1ccccn1)c1cnc2c(c1O)CSCC2 [5H-7,8-dihydro-4-hydroxy-3-(N-2-pyridylcarbamoyl)thiopyrano[4,3-b]pyridine]	–	~8.10
O=c1c2c[nH]c3c(c-2nn1-c1ccc(Cl)cc1)COCC3 [Example 4a, 2-p-chlorophenyl-2,3,5,6,7,9-hexahydropyrano[4,3-b]pyrazolo[3,4-d]pyridin-3-one]	active	~9.05
CC1CCc2[nH]cc3c(=O)n(-c4ccc(Cl)cc4)nc-3c2C1.Cl (stereo not shown) [Example 8e, 2-p-chlorophenyl-2,3,6,7,8,9-hexahydro-8-methylpyrazolo[4,3-c]-quinolin-3(5H)-one hydrochloride]	active	~9.00
